Assays:
[1] = Cytotoxicity against human PC3 cells assessed as inhibition of cell proliferation by sulforhodamine B assay; type: functional, cell-based; details: PC-3
U-251 = assay: Cytotoxicity against human U251 cells assessed as inhibition of cell proliferation by sulforhodamine B assay; type: functional, cell-based

Row | Structure (SMILES) | IC50 [1] [nM] | IC50 (U-251) [nM]
1 | CC(C)[C@]12O[C@H]1[C@@H]1O[C@@]13[C@@]1(C)CCC4=C(COC4=O)[C@]1(Br)C[C@@H]1O[C@@]13C2=O | 104 | 558
2 | CC(C)[C@]12O[C@H]1[C@@H]1O[C@@]13[C@@]1(C)CCC4=C(COC4=O)[C@]1(Cl)C[C@@H]1O[C@@]13C2=O | 85 | 170
3 | CC(C)[C@]12O[C@H]1[C@@H]1O[C@]13[C@]1(O[C@H]1C=C1C4=C(CC[C@@]13C)C(=O)OC4)[C@H]2O | 3220 | 5040
4 | CC(C)[C@]12O[C@H]1[C@@H]1O[C@]13[C@]1(O[C@H]1C[C@@]1(O)C4=C(CC[C@]31C)C(=O)OC4)[C@@H]2O | 275 | 488
5 | CC(C)[C@]12O[C@H]1[C@@H]1O[C@]13[C@]1(O[C@H]1[C@H](O)[C@@]1(O)C4=C(CC[C@]31C)C(=O)OC4)[C@H]2O | > 10000 | > 10000
6 | CC(C)[C@]12O[C@H]1[C@@H]1O[C@]13[C@]1(O[C@H]1[C@H](O)[C@@]1(O)C4=C(CC[C@]31C)C(=O)OC4)[C@@H]2O | 589 | 1580
7 | CC(C)[C@]12O[C@H]1[C@@H]1O[C@@]13[C@@]1(C)CCC4=C(COC4=O)C1=C[C@@H]1O[C@@]13C2=O | 171 | 1630
8 | CC(C)[C@]12O[C@H]1[C@@H]1O[C@@]13[C@@]1(C)CCC4=C(COC4=O)[C@]1(F)C[C@@H]1O[C@@]13C2=O | 223 | 429
9 | CC(C)[C@]12O[C@H]1[C@@H]1O[C@@]13[C@@]1(C)CCC4=C(COC4=O)[C@]1(O)[C@@H](O)[C@@H]1O[C@@]13C2=O | 2270 | 2970
10 | CC(C)[C@]12O[C@H]1[C@@H]1O[C@]13[C@@]1(O[C@@H]1C[C@H]1C4=C(CC[C@@]13C)C(=O)OC4)[C@@H]2O | > 10000 | > 10000
11 | CC(C)[C@]12O[C@H]1[C@@H]1O[C@@]13[C@@]1(C)CCC4=C(COC4=O)[C@@H]1C[C@@H]1O[C@@]13C2=O [TRIPTONIDE] | 26 | 31
12 | CC(C)[C@]12O[C@H]1[C@@H]1O[C@]13[C@]1(O[C@H]1C[C@H]1C4=C(CC[C@@]13C)C(=O)OC4)[C@@H]2O [TRIPTOLIDE] | 20 | 33
13 | CC(C)[C@]12O[C@H]1[C@@H]1O[C@@]13[C@@]1(C)CCC4=C(COC4=O)[C@]1(O)C[C@@H]1O[C@@]13[C@]21CO1 | 2610 | 5470
14 | CC(C)[C@]12O[C@H]1[C@@H]1O[C@]13C(=CC[C@H]1C4=C(CC[C@@]13C)C(=O)OC4)[C@@H]2O | > 10000 | > 10000
15 | CC(C)[C@]12O[C@H]1[C@@H]1O[C@@]13[C@@]1(C)CCC4=C(COC4=O)[C@@]14O[C@H]4[C@@H]1O[C@@]13C2=O | 4050 | 197
16 | CC(C)[C@]12O[C@H]1[C@@H]1O[C@@]13[C@@]1(C)CCC4=C(COC4=O)[C@@]1(O)[C@@H](O)[C@@H]1O[C@@]13C2=O | 5040 | 9860
17 | CC(C)[C@]12O[C@H]1[C@@H]1O[C@@]13[C@@]1(C)CCC4=C(COC4=O)[C@]1(O)C[C@@H]1O[C@@]13C2=O | 377 | 1030
18 | CC(C)[C@]12O[C@H]1[C@@H]1O[C@]13[C@]1(O[C@H]1C=C1C4=C(CC[C@@]13C)C(=O)OC4)[C@@H]2O | 126 | 718
19 | CC(C)[C@]12O[C@H]1[C@@H]1O[C@@]13[C@@]1(C)CCC4=C(COC4=O)[C@]1(Br)C[C@@H]1O[C@@]13[C@]21CO1 | 893 | 2040
20 | CC(C)[C@]12O[C@H]1[C@@H]1O[C@]13[C@]1(O[C@H]1C[C@@]1(Br)C4=C(CC[C@]31C)C(=O)OC4)[C@@H]2O | 333 | 796
21 | CC(C)[C@]12O[C@H]1[C@@H]1O[C@@]13[C@@]1(C)CCC4=C(COC4=O)[C@]1(Cl)C[C@@H]1O[C@@]13[C@]21CO1 | 871 | 925
